Experimental data: patent US20250263370A1 (Tay Therapeutics Limited, priority 2022, published 2025)

Test: Intrinsic clearance in liver microsomes, rat
Format: in vitro ADME
Conditions: rat, liver microsomes, pH 7.4, rat liver microsomes, Method 1; read-out: Half-Life (T1/2) (min), Rat
Outline: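 Compound at 1 μM (0.1–1% DMSO) incubated at 37 °C with mouse or rat liver microsomes (0.5 mg/mL protein) and 1 mM NADPH in PBS pH 7.4; samples taken up to 60 min and quenched in cold acetonitrile. LC-MS/MS of percent remaining gave half-life and CLint; no-NADPH controls run.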

CNC(=O)c1[nH]c(C(=O)NC2CCC2)cc1O[C@@H](C)c1ccccc1 (stereo in doubt) [Example 101, N^5-cyclobutyl-N^2-methyl-3-(1-phenylethoxy)-1H-pyrrole-2,5-dicarboxamide]
half-life at 1 μM: 58 min
